The values below come from patent publication US7071349B2, “Purification method of N-(1(S)-ethoxycarbonyl-3-phenylpropyl)-L-alanine” (Kanaka Corporation, priority 2001, dated 2006).

The nature of the data set: Solubility of the pure product in mixed solvents of ethanol and water. The class given is physicochemical. The procedure:
One-hundred milliliters each of mixed solvents of ethanol and water in predetermined volume ratios were respectively adjusted to predetermined temperatures and each […] of N-(1(S)-ethoxycarbonyl-3-phenylpropyl)-L-alanine was no longer dissolved. After 30 minutes of standing, the supernatant was taken and the solubility (weight %) was determined according to the weight after concentration to dryness/the weight of the solution.

For the compound `CCOC(=O)[C@H](CCc1ccccc1)N[C@@H](C)C(=O)O` [N-(1(S)-ethoxycarbonyl-3-phenylpropyl)-L-alanine], the Solubility is, setting by setting: (ethanol/water volume ratio 0.43, 10° C.) 1 weight %; (ethanol/water volume ratio 0.43, 65° C.) 9 weight %; (ethanol/water volume ratio 1.00, 10° C.) 2 weight %; (ethanol/water volume ratio 1.00, 20° C.) 3 weight %; (ethanol/water volume ratio 1.00, 65° C.) 21 weight %; (ethanol/water volume ratio 2.33, 10° C.) 3 weight %. Further, the Solubility was determined as 4 weight % (ethanol/water volume ratio 2.33, 20° C.); 42 weight % (ethanol/water volume ratio 2.33, 65° C.); 4 weight % (ethanol/water volume ratio 4.00, 10° C.); 5 weight % (ethanol/water volume ratio 4.00, 20° C.); 45 weight % (ethanol/water volume ratio 4.00, 65° C.); 3 weight % (ethanol/water volume ratio 5.67, 10° C.). Further, the Solubility runs as follows: (ethanol/water volume ratio 5.67, 20° C.) 5 weight %; (ethanol/water volume ratio 5.67, 65° C.) 42 weight %; (ethanol/water volume ratio 15.7, 10° C.) 3 weight %; (ethanol/water volume ratio 15.7, 20° C.) 4 weight %; (ethanol/water volume ratio 15.7, 65° C.) 26 weight %; (ethanol/water volume ratio 249, 10° C.) 2 weight %. The Solubility by setting is: (ethanol/water volume ratio 249, 20° C.) 3 weight %; (ethanol/water volume ratio 249, 65° C.) 17 weight %.
